In publication PMC12748766, “Structural basis for human chondroitin sulfate chain polymerization” (Nature Communications, 2025):

Columns and labels:
Test in all cases: FACE gel glycosylation assay
Type in all cases: biochemical
CHSY3-CHPF complex = target: T1, CHSY3-CHPF complex (Homo sapiens, UniProt Q70JA7); settings: acceptor TAMRA-labelled Hexa-CSF1 glycopeptide, co-donor UDP-GlcA; Mn2+ and Mg2+, pH 6.5, 30 C; C-terminal GT7 site of CHSY3
T1 construct: secreted luminal part of both chains (TM helix removed), HEK Freestyle 293-F; N-terminal RPTP sigma signal, SUMO, His6 cut with 3C; C-terminal Avi (CHSY3), 3C site and twin-Strep (CHPF); heterodimer, expected 165 kDa; with Chondroitin sulfate synthase 2
T1 sequence (Q70JA7 157-882): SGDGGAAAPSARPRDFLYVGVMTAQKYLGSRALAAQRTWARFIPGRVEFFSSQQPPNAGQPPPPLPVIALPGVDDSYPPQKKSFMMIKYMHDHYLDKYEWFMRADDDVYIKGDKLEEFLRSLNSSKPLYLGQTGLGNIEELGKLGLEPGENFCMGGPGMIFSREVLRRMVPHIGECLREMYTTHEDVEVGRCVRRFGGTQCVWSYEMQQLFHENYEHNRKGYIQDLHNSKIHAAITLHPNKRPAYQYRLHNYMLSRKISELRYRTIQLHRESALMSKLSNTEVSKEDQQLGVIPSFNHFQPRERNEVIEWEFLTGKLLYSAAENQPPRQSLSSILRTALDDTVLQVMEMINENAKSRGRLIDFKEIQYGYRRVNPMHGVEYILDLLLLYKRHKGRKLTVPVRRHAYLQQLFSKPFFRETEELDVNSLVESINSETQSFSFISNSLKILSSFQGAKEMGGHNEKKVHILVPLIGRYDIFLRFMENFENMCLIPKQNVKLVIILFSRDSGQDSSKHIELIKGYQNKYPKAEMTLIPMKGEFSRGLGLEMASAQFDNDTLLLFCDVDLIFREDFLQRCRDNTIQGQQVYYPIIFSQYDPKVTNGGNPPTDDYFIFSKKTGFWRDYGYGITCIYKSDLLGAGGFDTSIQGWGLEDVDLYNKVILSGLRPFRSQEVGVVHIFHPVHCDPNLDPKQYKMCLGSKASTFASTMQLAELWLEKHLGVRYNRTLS
T1 sequence (Q8IZ52 81-775 partner): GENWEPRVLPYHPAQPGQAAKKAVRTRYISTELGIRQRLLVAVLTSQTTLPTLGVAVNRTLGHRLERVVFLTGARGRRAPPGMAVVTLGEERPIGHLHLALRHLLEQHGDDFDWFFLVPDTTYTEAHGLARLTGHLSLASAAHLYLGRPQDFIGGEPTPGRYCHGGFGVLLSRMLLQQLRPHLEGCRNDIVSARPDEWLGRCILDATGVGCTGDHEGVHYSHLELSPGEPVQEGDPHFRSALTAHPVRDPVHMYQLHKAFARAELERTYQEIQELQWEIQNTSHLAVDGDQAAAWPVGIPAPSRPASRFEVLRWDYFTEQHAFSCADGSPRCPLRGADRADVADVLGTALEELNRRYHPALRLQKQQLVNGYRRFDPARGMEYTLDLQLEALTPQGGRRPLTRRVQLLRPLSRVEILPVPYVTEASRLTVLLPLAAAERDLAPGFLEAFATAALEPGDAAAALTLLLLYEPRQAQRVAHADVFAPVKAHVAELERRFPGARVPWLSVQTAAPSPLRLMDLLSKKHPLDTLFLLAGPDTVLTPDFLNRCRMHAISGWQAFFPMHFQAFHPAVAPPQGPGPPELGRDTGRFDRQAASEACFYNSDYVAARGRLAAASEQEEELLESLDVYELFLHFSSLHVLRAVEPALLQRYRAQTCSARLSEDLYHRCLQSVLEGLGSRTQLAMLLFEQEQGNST

CHSY3-CHPF2 complex = target: T2, CHSY3-CHPF2 complex (Homo sapiens, UniProt Q70JA7); settings: acceptor TAMRA-labelled Penta-CSF1 glycopeptide, co-donor UDP-GlcA; Mn2+ and Mg2+, pH 6.5, 30 C
T2 construct: secreted luminal part of both chains (TM helix removed), HEK Freestyle 293-F; N-terminal SUMO, His6 cut with 3C; C-terminal Avi (CHSY3), 3C site and twin-Strep (CHPF2); heterodimer, expected 167 kDa; with Chondroitin sulfate glucuronyltransferase
T2 sequence (Q70JA7 157-882): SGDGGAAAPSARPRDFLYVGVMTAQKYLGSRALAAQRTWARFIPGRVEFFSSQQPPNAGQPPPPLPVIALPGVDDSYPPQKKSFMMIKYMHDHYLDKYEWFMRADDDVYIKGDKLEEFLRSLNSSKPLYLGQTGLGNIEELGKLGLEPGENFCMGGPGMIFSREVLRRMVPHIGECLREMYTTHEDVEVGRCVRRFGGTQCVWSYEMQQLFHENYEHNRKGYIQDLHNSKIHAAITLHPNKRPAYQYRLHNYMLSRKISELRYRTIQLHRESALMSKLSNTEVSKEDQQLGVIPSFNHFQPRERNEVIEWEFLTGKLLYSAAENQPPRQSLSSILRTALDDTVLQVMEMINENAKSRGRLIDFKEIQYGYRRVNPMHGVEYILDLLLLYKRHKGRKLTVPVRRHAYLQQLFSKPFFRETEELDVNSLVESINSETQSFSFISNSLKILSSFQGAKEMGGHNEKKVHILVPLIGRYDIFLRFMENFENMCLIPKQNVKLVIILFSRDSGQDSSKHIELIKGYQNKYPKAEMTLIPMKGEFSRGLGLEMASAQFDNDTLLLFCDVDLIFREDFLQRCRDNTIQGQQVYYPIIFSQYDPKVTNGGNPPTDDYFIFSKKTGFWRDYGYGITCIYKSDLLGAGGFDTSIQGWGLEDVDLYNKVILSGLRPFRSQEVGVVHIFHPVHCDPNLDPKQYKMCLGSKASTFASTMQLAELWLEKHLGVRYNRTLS
T2 sequence (Q9P2E5 57-772 partner): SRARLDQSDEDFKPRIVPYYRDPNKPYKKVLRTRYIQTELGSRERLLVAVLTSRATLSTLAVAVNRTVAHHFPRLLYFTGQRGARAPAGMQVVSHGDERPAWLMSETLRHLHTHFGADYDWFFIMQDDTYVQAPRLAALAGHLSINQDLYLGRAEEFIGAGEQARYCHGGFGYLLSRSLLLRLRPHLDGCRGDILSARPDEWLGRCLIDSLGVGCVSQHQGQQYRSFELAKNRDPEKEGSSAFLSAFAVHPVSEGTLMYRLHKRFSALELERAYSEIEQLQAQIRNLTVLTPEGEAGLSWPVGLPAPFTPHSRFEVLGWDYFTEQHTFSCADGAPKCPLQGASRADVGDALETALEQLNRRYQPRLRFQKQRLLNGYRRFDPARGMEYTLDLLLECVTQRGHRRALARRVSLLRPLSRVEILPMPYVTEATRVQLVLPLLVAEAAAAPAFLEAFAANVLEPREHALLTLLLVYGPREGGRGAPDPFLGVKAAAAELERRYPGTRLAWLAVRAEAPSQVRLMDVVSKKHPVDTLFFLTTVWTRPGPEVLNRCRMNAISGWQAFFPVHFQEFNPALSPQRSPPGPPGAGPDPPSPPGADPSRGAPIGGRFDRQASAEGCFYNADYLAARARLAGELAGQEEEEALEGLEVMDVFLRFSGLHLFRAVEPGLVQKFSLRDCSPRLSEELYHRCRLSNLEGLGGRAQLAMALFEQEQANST

CHSY1-CHPF complex = target: T3, CHSY1-CHPF complex (Homo sapiens, UniProt Q86X52); settings: acceptor TAMRA-labelled Penta-CSF1 glycopeptide, co-donor UDP-GlcA; Mn2+ and Mg2+, pH 6.5, 30 C
T3 construct: secreted luminal part of both chains (TM helix removed), HEK Freestyle 293-F; N-terminal SUMO, His6 cut with 3C; C-terminal Avi (CHSY1), 3C site and twin-Strep (CHPF); heterodimer, expected 167 kDa; with Chondroitin sulfate synthase 2
T3 sequence (Q86X52 68-802): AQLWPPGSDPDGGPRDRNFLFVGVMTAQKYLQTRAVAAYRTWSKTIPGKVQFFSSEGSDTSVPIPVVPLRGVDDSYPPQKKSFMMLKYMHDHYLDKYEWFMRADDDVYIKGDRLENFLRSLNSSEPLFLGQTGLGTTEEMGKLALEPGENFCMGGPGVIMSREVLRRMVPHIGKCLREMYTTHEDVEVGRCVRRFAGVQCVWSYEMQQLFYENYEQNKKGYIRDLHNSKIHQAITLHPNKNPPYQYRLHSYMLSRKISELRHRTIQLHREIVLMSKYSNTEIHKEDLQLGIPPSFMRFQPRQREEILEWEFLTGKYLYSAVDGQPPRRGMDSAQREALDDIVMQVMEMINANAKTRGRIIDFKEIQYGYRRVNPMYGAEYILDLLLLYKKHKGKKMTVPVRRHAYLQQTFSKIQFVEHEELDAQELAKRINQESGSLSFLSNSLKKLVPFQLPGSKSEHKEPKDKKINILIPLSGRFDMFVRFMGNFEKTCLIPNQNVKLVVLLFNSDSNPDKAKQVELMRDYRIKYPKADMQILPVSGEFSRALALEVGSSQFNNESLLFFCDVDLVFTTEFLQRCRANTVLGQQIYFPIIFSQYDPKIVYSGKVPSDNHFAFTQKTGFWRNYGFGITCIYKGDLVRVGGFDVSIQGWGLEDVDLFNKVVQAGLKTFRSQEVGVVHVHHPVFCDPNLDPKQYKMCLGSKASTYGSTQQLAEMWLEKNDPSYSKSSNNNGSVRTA
T3 sequence (Q8IZ52 81-775 partner): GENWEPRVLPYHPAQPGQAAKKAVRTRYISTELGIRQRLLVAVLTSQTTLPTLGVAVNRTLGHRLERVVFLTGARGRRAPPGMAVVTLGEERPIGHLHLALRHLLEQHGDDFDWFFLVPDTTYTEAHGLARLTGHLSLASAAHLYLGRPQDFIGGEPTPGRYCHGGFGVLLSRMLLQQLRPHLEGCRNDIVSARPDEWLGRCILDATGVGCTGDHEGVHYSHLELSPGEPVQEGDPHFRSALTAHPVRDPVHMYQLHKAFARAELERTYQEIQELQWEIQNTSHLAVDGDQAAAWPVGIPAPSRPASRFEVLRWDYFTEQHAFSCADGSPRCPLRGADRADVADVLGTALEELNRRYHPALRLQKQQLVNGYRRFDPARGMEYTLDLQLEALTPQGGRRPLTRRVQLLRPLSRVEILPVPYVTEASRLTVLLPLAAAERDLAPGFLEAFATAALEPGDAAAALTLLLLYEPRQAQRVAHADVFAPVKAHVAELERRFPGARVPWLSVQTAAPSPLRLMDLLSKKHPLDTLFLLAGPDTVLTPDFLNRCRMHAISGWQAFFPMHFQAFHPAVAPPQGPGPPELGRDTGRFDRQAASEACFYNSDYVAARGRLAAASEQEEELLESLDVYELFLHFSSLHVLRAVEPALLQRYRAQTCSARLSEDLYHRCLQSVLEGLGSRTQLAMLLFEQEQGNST

CHSY1-CHPF2 complex = target: T4, CHSY1-CHPF2 complex (Homo sapiens, UniProt Q86X52); settings: acceptor TAMRA-labelled Penta-CSF1 glycopeptide, co-donor UDP-GlcA; Mn2+ and Mg2+, pH 6.5, 30 C
T4 construct: secreted luminal part of both chains (TM helix removed), HEK Freestyle 293-F; N-terminal SUMO, His6 cut with 3C; C-terminal Avi (CHSY1), 3C site and twin-Strep (CHPF2); heterodimer, expected 169 kDa; with Chondroitin sulfate glucuronyltransferase
T4 sequence (Q86X52 68-802): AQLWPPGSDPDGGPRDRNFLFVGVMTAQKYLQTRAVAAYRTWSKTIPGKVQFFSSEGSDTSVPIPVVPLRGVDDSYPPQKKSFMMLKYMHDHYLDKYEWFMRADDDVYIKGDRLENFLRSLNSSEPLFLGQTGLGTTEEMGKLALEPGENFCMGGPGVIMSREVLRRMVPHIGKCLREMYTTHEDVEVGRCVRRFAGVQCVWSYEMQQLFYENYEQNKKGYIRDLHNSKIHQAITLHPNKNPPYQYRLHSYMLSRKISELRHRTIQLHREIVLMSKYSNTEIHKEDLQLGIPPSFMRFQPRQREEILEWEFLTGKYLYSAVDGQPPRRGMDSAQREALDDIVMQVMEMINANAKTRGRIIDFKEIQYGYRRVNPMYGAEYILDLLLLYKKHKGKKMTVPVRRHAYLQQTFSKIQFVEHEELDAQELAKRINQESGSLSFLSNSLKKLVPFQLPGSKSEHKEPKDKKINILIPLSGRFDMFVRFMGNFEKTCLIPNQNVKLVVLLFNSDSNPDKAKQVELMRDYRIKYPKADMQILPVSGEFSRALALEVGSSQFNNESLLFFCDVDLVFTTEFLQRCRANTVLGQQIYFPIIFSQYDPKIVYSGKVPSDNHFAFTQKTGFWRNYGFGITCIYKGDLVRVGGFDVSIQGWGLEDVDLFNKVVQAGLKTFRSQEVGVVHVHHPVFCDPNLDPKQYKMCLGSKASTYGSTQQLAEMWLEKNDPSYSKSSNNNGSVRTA
T4 sequence (Q9P2E5 57-772 partner): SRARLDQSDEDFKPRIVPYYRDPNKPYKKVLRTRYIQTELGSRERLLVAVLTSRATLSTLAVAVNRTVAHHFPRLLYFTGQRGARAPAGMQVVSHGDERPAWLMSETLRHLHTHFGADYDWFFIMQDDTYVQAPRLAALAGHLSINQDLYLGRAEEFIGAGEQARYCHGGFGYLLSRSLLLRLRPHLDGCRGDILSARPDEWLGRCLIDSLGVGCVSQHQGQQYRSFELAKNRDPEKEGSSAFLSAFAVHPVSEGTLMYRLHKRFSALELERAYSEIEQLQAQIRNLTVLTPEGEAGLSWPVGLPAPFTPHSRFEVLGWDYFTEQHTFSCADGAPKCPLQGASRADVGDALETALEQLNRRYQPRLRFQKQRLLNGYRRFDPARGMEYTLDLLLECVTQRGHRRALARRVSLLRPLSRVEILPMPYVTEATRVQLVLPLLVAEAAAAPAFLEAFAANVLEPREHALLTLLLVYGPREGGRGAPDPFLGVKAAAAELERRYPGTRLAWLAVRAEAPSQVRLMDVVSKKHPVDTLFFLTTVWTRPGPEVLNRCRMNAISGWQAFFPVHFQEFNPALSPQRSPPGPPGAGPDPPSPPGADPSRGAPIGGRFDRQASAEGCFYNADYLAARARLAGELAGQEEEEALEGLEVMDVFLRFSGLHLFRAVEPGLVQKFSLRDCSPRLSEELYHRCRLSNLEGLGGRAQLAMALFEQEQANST

Structure (SMILES): CC(=O)N[C@H]1[C@@H](OP(=O)(O)OP(=O)(O)OC[C@H]2O[C@@H](n3ccc(=O)[nH]c3=O)[C@H](O)[C@@H]2O)O[C@H](CO)[C@H](O)[C@@H]1O [UDP-GalNAc]
- FACE gel glycosylation assay (CHSY3-CHPF complex): wild-type CHSY3-CHPF complex efficiently elongated the Penta-CSF1 and Hexa-CSF1 substrates into high molecular weight chains
- FACE gel glycosylation assay (CHSY3-CHPF2 complex): All four purified CS polymerase complexes were able to elongate the CS chain
- FACE gel glycosylation assay (CHSY1-CHPF complex): All four purified CS polymerase complexes were able to elongate the CS chain
- FACE gel glycosylation assay (CHSY1-CHPF2 complex): All four purified CS polymerase complexes were able to elongate the CS chain
